Laboratory results from US7923461B2, “TNF-α production inhibitors” (Santen Pharmaceutical Co., Ltd., priority 2000, dated 2011).

system: not given; test: not given; conditions: not given

Row | SMILES | melting point [°C]
1 | CCCCCN(CCC12CC3CC(CC(C3)C1)C2)C(=O)NCCC(C)c1ccncc1 (centres unmarked) [Compound No. 1-104, 1-[2-(1-Adamantyl)ethyl]-1-pentyl-3-[3-(4-pyridyl)butyl]urea] | 93 to 98
2 | O=C(NCCCc1ccncc1)N(CCCC(F)(F)F)CCC12CC3CC(CC(C3)C1)C2 [Compound No. 1-105, 1-[2-(1-Adamantyl)ethyl]-3-[3-(4-pyridyl)propyl]-1-(4,4,4-trifluorobutyl)urea] | 142.6 to 145
3 | O=C(NCCCc1ccncc1)N(CCCCC(F)(F)F)CCC12CC3CC(CC(C3)C1)C2 [Compound No. 1-106, 1-[2-(1-Adamantyl)ethyl]-3-[3-(4-pyridyl)propyl]-1-(5,5,5-trifluoropentyl)urea] | 116.9 to 118.9
4 | CCCCCN(CCC12CC3CC(CC(C3)C1)C2)C(=O)NCC(CC)Cc1ccncc1 (centres unmarked) [Compound No. 1-108, 1-[2-(1-Adamantyl)ethyl]-1-pentyl-3-[2-(4-pyridylmethyl)butyl]urea] | 72 to 77
5 | CCCCCN(CCC12CC3CC(CC(C3)C1)C2)C(=O)NCC(Cc1ccccc1)Cc1ccncc1 (centres unmarked) [Compound No. 1-109, 1-[2-(1-Adamantyl)ethyl]-3-[2-benzyl-3-(4-pyridyl)propyl]-1-pentylurea] | 111 to 116
6 | CCCCCN(CCC12CC3CC(CC(C3)C1)C2)C(=O)NCC(Cc1ccncc1)Cc1ccncc1 [Compound No. 1-110, 1-[2-(1-Adamantyl)ethyl]-3-[2,2-bis(4-pyridylmethyl)ethyl]-1-pentylurea] | 124 to 136
7 | CC(C)(C)OC(=O)NCCN(CCC12CC3CC(CC(C3)C1)C2)C(=O)NCCCc1ccncc1 [Compound No. 10-8, 1-[2-(1-Adamantyl)ethyl]-1-[2-[N-(t-butoxycarbonyl)amino]ethyl]-3-[3-(4-pyridyl)propyl]urea] | 158 to 160.5

More lines, now with the values ahead:

Row | melting point [°C] | SMILES
8 | 90 to 118 | CCCCCN(CCC12CC3CC(CC(C3)C1)C2)C(=O)NC/C=C/c1ccncc1 [Compound No. 1-112, (E)-1-[2-(1-Adamantyl)ethyl]-1-pentyl-3-[3-(4-pyridyl)-2-propenyl]urea]
9 | 106.2 to 107.3 | O=C(NCCCc1ccncc1)N(CCC12CC3CC(CC(C3)C1)C2)CC(F)(F)F [Compound No. 1-114, 1-[2-(1-Adamantyl)ethyl]-3-[3-(4-pyridyl)propyl]-1-(2,2,2-trifluoroethyl)urea]
10 | 49 to 50 | CCCCCN(CCc1ccccc1)C(=O)NCC(C)Cc1ccncc1 (centres unmarked) [Compound No. 1-115, 3-[2-Methyl-3-(4-pyridyl)propyl]-1-pentyl-1-phenethylurea]
11 | 81.1 to 84.1 | CC(CNC(=O)N(CCC(F)(F)F)CCC12CC3CC(CC(C3)C1)C2)Cc1ccncc1 (centres unmarked) [Compound No. 1-117, 1-[2-(1-Adamantyl)ethyl]-3-[2-methyl-3-(4-pyridyl)propyl]-1-(3,3,3-trifluoropropyl)urea]
12 | 79.8 to 80.4 | CCCCN(CCCC12CC3CC(CC(C3)C1)C2)C(=O)NCCCc1ccncc1 [Compound No. 1-122, 1-[3-(1-Adamantyl)propyl]-1-butyl-3-[3-(4-pyridyl)propyl]urea]
13 | 88.9 to 90 | O=C(NCCCc1ccncc1)N(CCCC12CC3CC(CC(C3)C1)C2)CC(F)(F)F [Compound No. 1-123, 1-[3-(1-Adamantyl)propyl]-3-[3-(4-pyridyl)propyl]-1-(2,2,2-trifluoroethyl)urea]
14 | 92.7 to 93.7 | CCN(CCCCC12CC3CC(CC(C3)C1)C2)C(=O)NCCCc1ccncc1 [Compound No. 1-124, 1-[4-(1-Adamantyl)butyl]-1-ethyl-3-[3-(4-pyridyl)propyl]urea]
15 | 110 to 110.5 | CCCN(CCCCC12CC3CC(CC(C3)C1)C2)C(=O)NCCCc1ccncc1 [Compound No. 1-125, 1-[4-(1-Adamantyl)butyl]-1-propyl-3-[3-(4-pyridyl)propyl]urea]
16 | 133.9 to 134.5 | CCCCCN(CCC12CC3CC(CC(C3)C1)C2)C(=O)NCCNc1ccncc1 [Compound No. 1-126, 1-[2-(1-Adamantyl)ethyl]-1-pentyl-3-[2-(4-pyridylamino)ethyl]urea]
17 | 96 to 98 | CCCN(CCCC12CC3CC(CC(C3)C1)C2)C(=O)NCc1ccncc1 [Compound No. 1-128, 1-[3-(1-Adamantyl)propyl]-1-propyl-3-(4-pyridyl)methylurea]
18 | 97.5 to 98.2 | CCN(CCCC12CC3CC(CC(C3)C1)C2)C(=O)NCCCc1ccncc1 [Compound No. 1-130, 1-[3-(1-Adamantyl)propyl]-1-ethyl-3-[3-(4-pyridyl)propyl]urea]
19 | 132 to 132.5 | CCCN(CC(=O)NC12CC3CC(CC(C3)C1)C2)C(=O)NCCCc1ccncc1 [Compound No. 1-132, 1-(1-Adamantyl)aminocarbonylmethyl-1-propyl-3-[3-(4-pyridyl)propyl]urea]
20 | 82.5 to 84.9 | CCCCCN(CCC12CC3CC(CC(C3)C1)C2)C(=O)NCC(C)(C)Cc1ccncc1 [Compound No. 1-135, 1-[2-(1-Adamantyl)ethyl]-3-[2,2-dimethyl-3-(4-pyridyl)propyl]-1-pentylurea]
21 | 105.6 to 107.1 | OCCN(CCc1ccccc1)C(=S)NCCCc1ccncc1 [Compound No. 7-2, 1-(2-Hydroxyethyl)-1-phenethyl-3-[3-(4-pyridyl)propyl]thiourea]
22 | 164.9 to 167.2 | CN(CCN(CCC12CC3CC(CC(C3)C1)C2)C(=O)NCCCc1ccncc1)S(C)(=O)=O [Compound No. 10-4, 1-[2-(1-Adamantyl)ethyl]-1-[2-[N-methyl-N-(methylsulfonyl)amino]ethyl]-3-[3-(4-pyridyl)propyl]urea]
23 | 101.4 to 102.4 | CN(CCN(CCC12CC3CC(CC(C3)C1)C2)C(=O)NCCCc1ccncc1)C(=O)CC(C)(C)C [Compound No. 10-6, 1-[2-(1-Adamantyl)ethyl]-1-[2-[N-(3,3-dimethylbutyryl)-N-methylamino]ethyl]-3-[3-(4-pyridyl)propyl]urea]
24 | 47 to 52 | CN(CCN(CCC12CC3CC(CC(C3)C1)C2)C(=O)NCCCc1ccncc1)C(=O)OC(C)(C)C(Cl)(Cl)Cl [Compound No. 10-10, 1-[2-(1-Adamantyl)ethyl]-1-[2-[N-(1,1-dimethyl-2,2,2-trichloroethoxycarbonyl)-N-methylamino]ethyl]-3-[3-(4-pyridyl)propyl]urea]
25 | 148 to 149 | CCCN(CCCC12CC3CC(CC(C3)C1)C2)C(=O)NCCCc1ccncc1.O=P(O)(O)O [Compound No. 13-10, 1-[3-(1-Adamantyl)propyl]-1-propyl-3-[3-(4-pyridyl)propyl]urea phosphate]

system: TNF-α production; test: Inhibitory effects on TNF-α production induced by lipopolysaccharide (LPS) stimulation, in vivo test; set-up: species or system rat; conditions: Rattus norvegicus, 2 h; female rats, oral administration of 3 mg/kg immediately after LPS to footpad; plasma TNF-α (ELISA) two hours after LPS; read-out: Inhibition rate (%) of TNF-α production
Description: Inhibitory effects on TNF-α production induced by lipopolysaccharide (LPS) stimulation were studied by in vivo tests according to the method of Tsuji et al. (Inflamm res. 46 (1997) 193-198).
Female rats (five per group), body weight of about 200 g, about eight weeks old, were used as test animals. LPS from Salmonella was dissolved in physiological saline to prepare an LPS solution (1 mg/ml). Each test substance was dissolved or uniformly suspended in a 1% methylcellulose solution to give test substance-preparation liquids.
The above-mentioned LPS solution (0.5 ml/kg) was administered to a footpad of the rat. Immediately after the LPS administration, the test substance-preparation liquid (containing 10 mg/kg or 3 mg/kg test substance) was orally administered. Two hours after the LPS administration, blood was collected from abdominal aorta and was centrifuged at 4° C. and 3000 rpm for ten minutes. TNF-α levels in the obtained plasma were measured with a rat TNF-α-specific ELISA kit. TNF-α was not observed in the plasma with respect to an LPS-non-administered group (control).
Inhibition rates of TNF-α production of the test substances were determined by the following equation. Inhibition rate (%)=[(A−B)/A]×100 A: TNF-α level in plasma of test substance-nonadministered group B: TNF-α level in plasma of test substance-administered group (Results)

Row | SMILES | inhibition in vivo at 3 mg/kg [%]
26 | CCCCCN(CCC12CC3CC(CC(C3)C1)C2)C(=O)NC[C@@H]1C[C@@H]1c1ccncc1 (relative stereo) [Compound No. 15-1, cis 1-[2-(1-Adamantyl)ethyl]-1-pentyl-3-[2-(4-pyridyl)cyclopropylmethyl]urea] | 73.8
27 | CCCCN(CCCC)C(=O)NCCCc1ccncc1 [Compound No. 1-10, 1,1-Dibutyl-3-[3-(4-pyridyl)propyl]urea] | 63

same assay, conditions: Rattus norvegicus, 2 h; female rats, oral administration of 10 mg/kg immediately after LPS to footpad; plasma TNF-α (ELISA) two hours after LPS; read-out: Inhibition rate (%) of TNF-α production

Row | SMILES | inhibition in vivo at 10 mg/kg [%]
28 | CCCCCN(CCC12CC3CC(CC(C3)C1)C2)C(=O)NCC(C)Cc1ccncc1 (single isomer, unassigned; (-)) [Compound No. 1-120, (−)-1-[2-(1-Adamantyl)ethyl]-3-[2-methyl-3-(4-pyridyl)propyl]-1-pentylurea] | 95.1
29 | CCCCCN(CCC12CC3CC(CC(C3)C1)C2)C(=O)NCCCc1ccncc1 [Compound No. 1-1, 1-[2-(1-Adamantyl)ethyl]-1-pentyl-3-[3-(4-pyridyl)propyl]urea] | 92.1
30 | N#CCN(CCC12CC3CC(CC(C3)C1)C2)C(=O)NCCCc1ccncc1 [Compound No. 1-20, 1-[2-(1-Adamantyl)ethyl]-1-cyanomethyl-3-[3-(4-pyridyl)propyl]urea] | 60
31 | CN(CCN(CCC12CC3CC(CC(C3)C1)C2)C(=O)NCCCc1ccncc1)C(=O)OC(C)(C)C [Compound No. 1-26, 1-[2-(1-Adamantyl)ethyl]-1-[2-[N-(t-butoxycarbonyl)-N-methylamino]ethyl]-3-[3-(4-pyridyl)propyl]urea] | 95.5
32 | O=C(NCCCc1ccncc1)N(CCC12CC3CC(CC(C3)C1)C2)OCc1ccccc1 [Compound No. 1-28, 1-[2-(1-Adamantyl)ethyl]-1-benzyloxy-3-[3-(4-pyridyl)propyl]urea] | 90.4
33 | CCCN(CCCC12CC3CC(CC(C3)C1)C2)C(=O)NCCCc1ccncc1 [Compound No. 1-35, 1-[3-(1-Adamantyl)propyl]-1-propyl-3-[3-(4-pyridyl)propyl]urea] | 82.5
34 | Cc1nc(CN(CCC23CC4CC(CC(C4)C2)C3)C(=O)NCCCc2ccncc2)cs1 [Compound No. 1-37, 1-[2-(1-Adamantyl)ethyl]-1-(2-methylthiazol-4-yl)methyl-3-[3-(4-pyridyl)propyl]urea] | 84.3
35 | CCCCCN(CCCCC)C(=O)NCCCc1ccncc1 [Compound No. 1-38, 1,1-Dipentyl-3-[3-(4-pyridyl)propyl]urea] | 92.3
